Laboratory results taken from paper PMC8113290, “[^11C]MODAG-001—towards a PET tracer targeting α-synuclein aggregates” (European Journal of Nuclear Medicine and Molecular Imaging, 2020).
Read-outs that look alike come from different tables or passages of the source. Marks after values point to notes of the source that are not given here. One block for each molecule: values may come before it.

Key:
[1] = In vivo PET imaging in mice (brain uptake); details: mouse, i.v. injection, one exemplary animal
Experimental: PET imaging was performed on a dedicated small animal Inveon PET scanner (Siemens Healthcare, Knoxville (TN), USA). Mice and rats were anesthetized with 1.5–1.7% isoflurane evaporated in 100% oxygen at a flow rate of 0.8 L/min, which was maintained during the entire experiment. After a tail vein catheter was placed, the animal was positioned in the center of the field of view (FOV) on an MR-compatible PET bed that was connected to a feedback temperature control unit set to 37 °C. Mice were injected intravenously (i.v.) with 17 ± 2 MBq [^11C]MODAG-001 (n = 3) or 12 ± 1 MBq (d3)-[^11C]MODAG-001 (n = 5) 5 s after the start of the PET acquisition. […]
Whole body mouse PET scans were coregistered to the whole body MR scan, which was sequentially acquired after the PET scan, and the volumes of interest (VOIs) of the lung, liver, heart, brain, and kidneys were drawn by hand based on the MR anatomical information using PMOD software (version 3.2; PMOD Technologies, Zürich, Switzerland). VOIs of different brain regions were extracted using the mouse or rat brain atlas provided by PMOD [10-12], and tissue time activity curves (TACs) were calculated and are expressed as standardized uptake values (SUVs), which were calculated as follows: SUV(t) = radioactivity concentration (kBq/mL of the organ)/(injected dose [kBq]/body weight [g]). […]

[2] = Radio-metabolite analysis in mouse plasma and brain by radio-HPLC; type: in vivo; details: for M3 % / M3 %ID: metabolite 3; for M2* % / M2* %ID: mixture of various metabolites
Experimental: For metabolite analysis, mice were i.v. injected with 91 ± 24 MBq of [^11C]MODAG-001 (n = 4 per time point) or 120 ± 41 MBq of (d3)-[^11C]MODAG-001 (n = 3 per time point) using a tail vein catheter. Five and 15 min after injection, plasma and brain homogenates were analyzed using radio-HPLC (for detailed information see supplemental material and methods section).
A 400 µL blood sample was collected by heart puncture five or 15 minutes after tracer injection. The blood was centrifuged at 17,000 x g and 4 °C for two minutes, and the plasma was transferred to a 1.5 mL reaction tube on ice for further analysis. After blood collection, mice were transcardially perfused (10 mL/min) with 20 mL of ice-cold PBS, and the brain of each mouse was removed from the skull. The brain was transferred to a glass tube (2 mL Dounce tissue grinder set, Sigma Aldrich Chemie GmbH) containing 0.5 mL of ice-cold PBS, sequentially homogenized using large and small clearance pestles and transferred to a 1.5 mL reaction tube on ice for further analysis. Plasma or brain homogenate was mixed 1:1 with acetonitrile and briefly centrifuged. After two minutes of incubation on ice, each mixture was centrifuged at room temperature for 1.5 minutes at 12,000 x g (MiniSpin®, Eppendorf AG) to remove precipitated proteins. The supernatant was subjected to reversed-phase HPLC on a Luna Phenyl Hexyl column (5 µm, 100 Å, 300 mm x 4.6 mm, Phenomenex) equipped with a radioactivity detector with 0.1 % trifluoroacetic acid in water/acetonitrile (70:30) at an isocratic flow rate of 1.5 mL/min.
For data analysis, the median of ten consecutive data points was calculated to remove noise; data were corrected for radioactive decay to time zero, defined as start of the HPLC of the five minute brain sample. This time zero radioactivity was plotted against time using Origin software (OriginLab Corporation, version 9.1G, Northampton, MA, USA). The area under the curve was calculated in % using the peak analyzer function and scaled up that the peaks add up to 100 %. The area under the curve was transformed into radioactivity values using a standard of [^11C]MODAG-001 with known radioactivity also corrected for decay and expressed as % injected radioactivity dose (%ID) per gram of brain tissue or per plasma in one mL of blood.

[3] = target: T1, αSYN fibrils inoculated into the right striatum (Homo sapiens, UniProt P37840); assay: In vivo PET imaging in αSYN fibril-inoculated rats; design: species or system rat; details: for mean distribution volume ratio (DVR)-1 40-60min (binding potential): 4 days post inoculation
T1 construct: made in house; host or cells: E. coli BL21(DE3)pLys
Experimental: Rats were inoculated with αSYN fibrils (4 μL, 30 μM) into the right striatum (see supplementary material and methods section for a detailed description) and scanned 4 days post-inoculation with 23 ± 1 MBq of (d3)-[^11C]MODAG-001.
Data acquisition, correction, framing and reconstruction, volume of interest (VOI) definition, and determination of binding parameters are described in detail in the supplementary material and methods section.
Rats were allowed to adapt for two weeks in the animal facility before fibril injection. Three adult female rats were anaesthetized with an intraperitoneal (i.p.) injection of a mixture of fentanyl (0.005 mg/kg), midazolam (2 mg/kg), and medetomidine (0.15 mg/kg) at 1 mL/kg. The head of each rat was shaved, and the animal was placed into a stereotaxic frame. A central incision was made to expose the bregma and lambda. A 5 µL syringe needle (Hamilton Company, Reno (NV), USA) was enclosed with a glass capillary (inner diameter, 50 µm, Hilgenberg GmbH, Malsfeld, Germany). αSYN fibrils (4 µL, 30 µM) were injected using a stereotaxic injector (Stoelting, Wood Lane, IL, USA) through a drill hole into the right striatum (ML= -3.2 mm, AP = 0.0 mm, DV = -4.8 mm) according to the stereotaxic atlas of Paxinos and Watson [9][. Based on the volume of the right striatum (0.04 cm^3), the concentration of inoculated fibrils was calculated as 2.8 µM. As a negative control, 4 µL of vehicle (50 mM Tris base, 100 mM sodium chloride, 0.02 % sodium azide, pH 7.0) were injected into the contralateral striatum. A total fibril volume of 4 µL was obtained by the injection of 0.4 µL every 60 seconds. To allow for diffusion of the fibrils into the tissue, the needle was left in this position for five minutes. […]
Whole body mouse PET scans were coregistered to the whole body MR scan, which was sequentially acquired after the PET scan, and the volumes of interest (VOIs) of the lung, liver, heart, brain, and kidneys were drawn by hand based on the MR anatomical information using PMOD software (version 3.2; PMOD Technologies, Zürich, Switzerland). VOIs of different brain regions were extracted using the mouse or rat brain atlas provided by PMOD [10-12], and tissue time activity curves (TACs) were calculated and are expressed as standardized uptake values (SUVs), which were calculated as follows: SUV(t) = radioactivity concentration (kBq/mL of the organ)/(injected dose [kBq]/body weight [g]). […] Distribution volume ratio 1 (DVR-1) values were calculated from individual TACs from 40 to 60 minutes, using the vehicle-injected striatum as a reference region, with the following formula: activity in fibril inoculated right striatum/activity in vehicle injected left striatum) - 1. […]

αSYN and Aβ1–42 fibrils = tested on: αSYN and Aβ1–42 fibrils; design: method as in PMID 29989823; details: similar rat model, despite good cerebral uptake and high Am ref 30; cited from earlier work
recombinant αSYN fibrils = details: cited from earlier work
[4] = mouse brain, 5 min after injection
[5] = mouse brain, 5 min after injection, parent compound
[6] = mouse brain, 15 min after injection, metabolite 1
[7] = mouse brain, 15 min after injection
[8] = mouse brain, 15 min after injection, parent compound
[9] = mouse plasma, 5 min after injection, metabolite 1
[10] = mouse plasma, 5 min after injection
[11] = mouse plasma, 5 min after injection, parent compound
[12] = mouse plasma, 15 min after injection, metabolite 1
[13] = mouse plasma, 15 min after injection
[14] = mouse plasma, 15 min after injection, parent compound

peak standardized uptake value (SUV) in brain [1]: 1.7
M1 %ID ([2]; mouse brain, 5 min after injection, metabolite 1): 0.4* %ID per g brain tissue
M1 % ([2]; mouse brain, 5 min after injection, metabolite 1, % of radioactivity): 5%
M3 % [2, 4]: 2%
M3 %ID [2, 4]: 0.2* %ID per g brain tissue
P % [2, 5]: 93%
P %ID [2, 5]: 8.8 %ID per g brain tissue
M1 % [2, 6]: 5%
M1 %ID [2, 6]: 0.4* %ID per g brain tissue
M3 % [2, 7]: 8%
M3 %ID [2, 7]: 0.7* %ID per g brain tissue
P % [2, 8]: 87%
P %ID [2, 8]: 7.2 %ID per g brain tissue
M1 % [2, 9]: 21%
M1 %ID [2, 9]: 0.6^# %ID per plasma in 1 mL blood
M3 % [2, 10]: 6%
M3 %ID [2, 10]: 0.1^# %ID per plasma in 1 mL blood
M2* % [2, 10]: 34%
M2* %ID [2, 10]: 0.9^# %ID per plasma in 1 mL blood
P % [2, 11]: 39%
P %ID [2, 11]: 1.0^# %ID per plasma in 1 mL blood
M1 % [2, 12]: 30%
M1 %ID [2, 12]: 0.8^# %ID per plasma in 1 mL blood
M3 % [2, 13]: 4%
M3 %ID [2, 13]: 0.1^# %ID per plasma in 1 mL blood
M2* % [2, 13]: 36%
M2* %ID [2, 13]: 1.0^# %ID per plasma in 1 mL blood
P % [2, 14]: 30%
P %ID [2, 14]: 0.8^# %ID per plasma in 1 mL blood
mean distribution volume ratio (DVR)-1 40-60min (binding potential) ([3]; 70% automatic isocontour VOI, contralateral side as reference): 0.44 ± 0.21
peak SUV ([3]; left striatum of fibril-inoculated rats): 2.1 ± 0.1
peak SUV ([3]; non-injected control rat): 2.1
mean distribution volume ratio (DVR)-1 40-60min (binding potential) ([3]; whole striatum VOI, contralateral vehicle-injected striatum as reference): 0.14 ± 0.1
SMILES: [2H]C([2H])([2H])N([11CH3])c1ccc(-c2cc(-c3ccnc(Br)c3)[nH]n2)cc1 [(d3)-[^11C]MODAG-001]

peak standardized uptake value (SUV) in brain [1]: 1.4
tissue uptake at 5 min ([2]; intravenous, mouse brain, 5 min after injection, parent compound, read-out: P %ID): 10.5 %ID/g
tissue uptake at 15 min ([2]; intravenous, mouse brain, 15 min after injection, parent compound, read-out: P %ID): 5.3 %ID/g
P % [2, 5]: 91%
P %ID [2, 5]: 10.5* %ID per g brain tissue
P % [2, 8]: 81%
P %ID [2, 8]: 5.3* %ID per g brain tissue
P % [2, 11]: 26%
P %ID [2, 11]: 0.8^# %ID per plasma in 1 mL blood
P % [2, 14]: 24%
P %ID [2, 14]: 0.7^# %ID per plasma in 1 mL blood
SMILES: CN([11CH3])c1ccc(-c2cc(-c3ccnc(Br)c3)[nH]n2)cc1 [[^11C]MODAG-001]

SMILES: CN(c1ccc(/C=C/c2nc3ccccc3o2)cc1)S(=O)(=O)c1ccccc1[18F] [[^18F]2FBox]
binding in vivo (αSYN and Aβ1–42 fibrils): no binding was observed in vivo

SMILES: CN(C)c1ncc(C=Cc2nc3ccc(OCCF)cc3o2)s1 [[^18F]BF-227]
binding in vivo (αSYN and Aβ1–42 fibrils): no binding was observed in vivo
Kd (recombinant αSYN fibrils; recombinant αSYN fibrils ref 26): 0.0096 µM

SMILES: O=[N+]([O-])c1ccc2c(c1)Sc1cc(OC/C=C/I)ccc1N2 [[^125I]SIL23]
Kd (recombinant αSYN fibrils; recombinant αSYN fibrils ref 24): 0.148 µM
